Measurements taken from patent US20250026721A1, “COMPOUNDS AND METHODS FOR MODULATING RAS-PI3K” (Vividion Therapeutics, Inc., priority 2023, published 2025).
pIC50: −log10 of the molar value.

These compounds were tested against T1, PIK3CA (Homo sapiens, UniProt P42336) (assay: In vitro ELISA target engagement assay for PIK3CA in Jurkat cellular lysate (competition with PIK3CA Biotin Probe)). Conditions: 1 hour at rt, then 500 nM PIK3CA Biotin Probe, read-out: Elisa Target Engagement Assay (TE50).
T1 construct: endogenous in cells; host or cells: Jurkat cell lysate
Type: binding
How it was run: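 Competition format in Jurkat lysate: compound (serial dilutions, top 200 μM) for 1 h at rt, then 500 nM final biotinylated PIK3CA probe for 1 h at rt. Sandwich ELISA with capture antibody and Neutravidin-HRP luminescence read-out measured probe-labelled PIK3CA, giving TE50.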

T1 sequence (P42336 whole entry): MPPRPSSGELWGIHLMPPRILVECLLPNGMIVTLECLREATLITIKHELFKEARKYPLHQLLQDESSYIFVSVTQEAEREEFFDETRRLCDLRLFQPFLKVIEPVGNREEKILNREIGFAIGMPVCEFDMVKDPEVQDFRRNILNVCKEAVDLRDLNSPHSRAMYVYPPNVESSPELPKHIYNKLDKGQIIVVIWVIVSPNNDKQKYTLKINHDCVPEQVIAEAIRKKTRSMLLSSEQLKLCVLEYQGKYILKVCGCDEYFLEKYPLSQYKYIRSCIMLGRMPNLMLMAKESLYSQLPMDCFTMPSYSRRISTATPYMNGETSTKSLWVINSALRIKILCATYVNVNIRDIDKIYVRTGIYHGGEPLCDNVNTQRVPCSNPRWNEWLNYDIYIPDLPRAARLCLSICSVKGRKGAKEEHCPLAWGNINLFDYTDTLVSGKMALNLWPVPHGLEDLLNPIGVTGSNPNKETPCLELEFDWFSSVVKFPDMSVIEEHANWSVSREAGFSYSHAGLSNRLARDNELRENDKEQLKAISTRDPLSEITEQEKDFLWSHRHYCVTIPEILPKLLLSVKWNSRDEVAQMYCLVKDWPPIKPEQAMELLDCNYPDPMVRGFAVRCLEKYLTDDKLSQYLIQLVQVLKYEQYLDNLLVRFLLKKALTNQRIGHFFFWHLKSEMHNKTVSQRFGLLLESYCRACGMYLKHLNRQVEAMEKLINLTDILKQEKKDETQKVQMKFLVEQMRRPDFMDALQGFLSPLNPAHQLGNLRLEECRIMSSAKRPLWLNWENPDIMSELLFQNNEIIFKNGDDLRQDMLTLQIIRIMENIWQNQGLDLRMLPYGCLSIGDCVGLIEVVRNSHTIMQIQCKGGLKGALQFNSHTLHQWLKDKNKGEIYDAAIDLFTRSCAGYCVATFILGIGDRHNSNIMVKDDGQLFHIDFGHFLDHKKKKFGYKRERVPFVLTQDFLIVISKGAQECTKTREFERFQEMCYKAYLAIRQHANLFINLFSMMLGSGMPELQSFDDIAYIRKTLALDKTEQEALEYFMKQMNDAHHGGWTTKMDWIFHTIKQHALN
T1 sequence (P27986 whole entry partner): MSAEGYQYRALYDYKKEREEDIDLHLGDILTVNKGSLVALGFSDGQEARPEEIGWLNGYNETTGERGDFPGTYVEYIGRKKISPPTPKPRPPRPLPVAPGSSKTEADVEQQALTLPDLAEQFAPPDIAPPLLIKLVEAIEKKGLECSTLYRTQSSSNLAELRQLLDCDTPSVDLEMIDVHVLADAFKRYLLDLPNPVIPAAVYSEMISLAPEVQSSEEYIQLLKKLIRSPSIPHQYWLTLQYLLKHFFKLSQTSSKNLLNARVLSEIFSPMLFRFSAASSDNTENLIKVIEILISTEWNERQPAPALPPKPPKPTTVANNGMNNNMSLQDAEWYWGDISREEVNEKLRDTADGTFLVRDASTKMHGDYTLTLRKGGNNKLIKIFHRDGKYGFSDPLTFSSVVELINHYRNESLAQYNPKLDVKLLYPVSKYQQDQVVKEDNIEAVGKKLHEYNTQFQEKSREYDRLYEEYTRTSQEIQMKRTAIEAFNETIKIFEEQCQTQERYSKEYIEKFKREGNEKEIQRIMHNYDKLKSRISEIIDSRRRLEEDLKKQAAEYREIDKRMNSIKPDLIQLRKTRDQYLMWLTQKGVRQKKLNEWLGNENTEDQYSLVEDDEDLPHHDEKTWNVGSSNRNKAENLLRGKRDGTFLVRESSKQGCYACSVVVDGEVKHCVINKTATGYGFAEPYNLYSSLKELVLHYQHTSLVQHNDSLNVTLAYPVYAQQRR

| pIC50 | SMILES |
| --- | --- |
| 6.28 | N#C/C=C/CNC(=O)C1(F)CCN(S(=O)(=O)c2cnc(Cl)cc2-c2ccccc2Cl)CC1 [Compound 232, (E)-1-((6-chloro-4-(2-chlorophenyl)pyridin-3-yl)sulfonyl)-N-(3-cyanoallyl)-4-fluoropiperidine-4-carboxamide] |
| 6.07 | C[C@H](/C=C\S(C)(=O)=O)NC(=O)C1(F)CCN(C(=O)[C@H]2CCN(CC(F)(F)F)C[C@@H]2c2ccccc2Cl)CC1 (single isomer, unassigned) [Compound 307, 1-((3*S,4*S)-3-(2-chlorophenyl)-1-(2,2,2-trifluoroethyl)piperidine-4-carbonyl)-4-fluoro-N-((R,Z)-4-(methylsulfonyl)but-3-en-2-yl)piperidine-4-carboxamide] |
| 7.49 | C[C@H](/C=C/S(=O)(=O)C1CNC1)NC(=O)C1(F)CCN(S(=O)(=O)c2ccc(Br)cc2-c2ccccc2Cl)CC1 [Compound 76, (R,E)-N-(4-(azetidin-3-ylsulfonyl)but-3-en-2-yl)-1-((5-bromo-2′-chloro-[1,1′-biphenyl]-2-yl)sulfonyl)-4-fluoropiperidine-4-carboxamide] |
| 6.00 | C[C@@H]1C[C@](F)(C(=O)NC/C=C\C(=O)N2CC(F)(F)C2)CCN1S(=O)(=O)c1ccc(C(F)(F)F)cc1-c1ccccc1Cl [Compound 290, (2R,4S)-1-((2′-chloro-5-(trifluoromethyl)-[1,1′-biphenyl]-2-yl)sulfonyl)-N-((Z)-4-(3,3-difluoroazetidin-1-yl)-4-oxobut-2-en-1-yl)-4-fluoro-2-methylpiperidine-4-carboxamide] |
| 6.27 | CCC(F)(F)CN1C[C@H](C(=O)N2CCC(F)(C(=O)N[C@H](C)/C=C\S(C)(=O)=O)CC2)[C@H](c2ccccc2Cl)C1 [Compound 178, 1-((3R,4R)-4-(2-chlorophenyl)-1-(2,2-difluorobutyl)pyrrolidine-3-carbonyl)-4-fluoro-N-((R,Z)-4-(methylsulfonyl)but-3-en-2-yl)piperidine-4-carboxamide] |

What follows are compounds tested against T2, PIK3CA_C242 (Homo sapiens, UniProt P42336) (assay: Proteomic TE50 (IA-DTB / TMT mass spectrometry) in Jurkat cell lysate). Conditions: 1 hour at rt, 7-point dose response.
T2 construct: endogenous in cells; host or cells: Jurkat cell lysate
Type: binding
Procedure: Example 4. Proteomic TE50 In vitro TE50 values for PIK3CA_C242 were obtained by treating 500 μg of cell lysate generated from Jurkat cells with DMSO or compound for 1 hour at rt followed by the addition of 200 μM desthiobiotin polyethyleneoxide iodoacetamide (IA-DTB) in DMSO for one hour at rt. Compounds were serially diluted 1:5 for a total of 7 points in order to generate dose response curves. Samples were then precipitated by the addition of 8× ice cold acetone and incubated at -80° C. for two hours. Protein was then pelleted by centrifugation (4,200 RPM, 45 min, 4° C.). The pelleted material was resuspended in 9M urea, 50 mM ammonium bicarbonate and proteins were reduced and alkylated by the addition of DTT and iodoacetamide (10 and 30 mM, respectively). Following reduction and alkylation, samples were exchanged into 2M urea (Zeba spin desalting plates, Thermo Fisher) and digested with Trypsin. IA-DTB labeled peptides were isolated with streptavidin agarose resin. Enriched peptides were eluted by the addition of 50% acetonitrile (ACN) 0.1% formic acid (FA) and dried in a SpeedVac vacuum concentrator. […] Reactions were quenched by the addition of 6.5 μL of 5% hydroxylamine. Samples were then combined and desalted on a Evolute express ABN plate (Biotage, 600-0010-PX01). Targeted TMT measurements were collected using an Orbitrap Lumos Tribrid Mass Spectrometer (Thermo Scientific) coupled to an UltiMate 3000 Series Rapid Separation LC system and autosampler (Thermo Scientific Dionex). Peptides were eluted onto a custom C18 capillary analytical column (75-μm inner diameter fused silica, packed with Acclaim PepMap C18 resin; Thermo Scientific) using an Acclaim PepMap 100 (Thermo 164535) loading column, and separated at a flow rate of […]. Data were acquired using a specific MS3-based TMT method targeting the peptide containing […], +2 charge state) where MS2 peptide fragmentation is triggered upon detection of the peptide precursor ion. Subsequent MS3 analysis was then performed using pre-selected peptide fragment ions that were isolated for fragmentation using synchronous precursor selection. RAW files were converted to MZXML format and searched with the SEQUEST algorithm using the […] software package. TMT quantitation was performed with a filter requiring at least ten summed signal-to-noise (S/N) for control channels. TE50 values were calculated from 7-point dose response curves created using the reporter ion S/N for each channel.

T2 sequence (P42336 whole entry): as the sequence (P42336 whole entry) above
T2 sequence (P27986 whole entry partner): as the sequence (P27986 whole entry partner) above

| pIC50 | SMILES |
| --- | --- |
| 6.05 | C[C@H](/C=C\S(C)(=O)=O)NC(=O)C1(F)CCN(C(=O)[C@@H]2CN(C(=O)OC(C)(C)C)C[C@@H]2c2ccccc2Cl)CC1 (racemic) [Compound 158, tert-butyl(3RS,4RS)-3-(2-chlorophenyl)-4-(4-fluoro-4-(((R,Z)-4-(methylsulfonyl)but-3-en-2-yl)carbamoyl)piperidine-1-carbonyl)pyrrolidine-1-carboxylate] |
| 6.60 | Cc1ccccc1-c1cc(N2CCCC2)ccc1S(=O)(=O)N1CCC(F)(C(=O)N[C@H](C)/C=C\S(C)(=O)=O)CC1 [Compound 120, (R,Z)-4-fluoro-1-((2′-methyl-5-(pyrrolidin-1-yl)-[1,1′-biphenyl]-2-yl)sulfonyl)-N-(4-(methylsulfonyl)but-3-en-2-yl)piperidine-4-carboxamide] |
| 6.02 | COc1cc(-c2ccccc2)c(S(=O)(=O)N2CCC(F)(C(=O)NC/C=C/S(C)(=O)=O)CC2)cn1 [Compound 191, (E)-4-fluoro-1-((6-methoxy-4-phenylpyridin-3-yl)sulfonyl)-N-(3-(methylsulfonyl)allyl)piperidine-4-carboxamide] |
| 6.15 | C[C@@H](/C=C\S(C)(=O)=O)NC(=O)C1(F)CCN(S(=O)(=O)c2ccc(Cl)cc2-c2cccc(Oc3ccccc3)c2)CC1 [Compound 267, (S,Z)-1-((5-chloro-3′-phenoxy-[1,1′-biphenyl]-2-yl)sulfonyl)-4-fluoro-N-(4-(methylsulfonyl)but-3-en-2-yl)piperidine-4-carboxamide] |
| 6.16 | COc1cccc(-c2ccccc2S(=O)(=O)N2CCC(F)(C(=O)NC/C=C/S(=O)(=O)C3CCN(C)CC3)CC2)c1 [Compound 228, (E)-4-fluoro-1-((3′-methoxy-[1,1′-biphenyl]-2-yl)sulfonyl)-N-(3-((1-methylpiperidin-4-yl)sulfonyl)allyl)piperidine-4-carboxamide] |
| 6.77 | CCc1ccc(S(=O)(=O)N2CCC(F)(C(=O)N[C@H](C)/C=C\S(C)(=O)=O)CC2)c(-c2ccccc2C)c1 [Compound 113, (R,Z)-1-((5-ethyl-2′-methyl-[1,1′-biphenyl]-2-yl)sulfonyl)-4-fluoro-N-(4-(methylsulfonyl)but-3-en-2-yl)piperidine-4-carboxamide] |
| 6.68 | CC#Cc1ccc(S(=O)(=O)N2CCC(F)(C(=O)N[C@H](C)/C=C\S(C)(=O)=O)CC2)c(-c2ccccc2Cl)c1 [Compound 131, (R,Z)-1-((2′-chloro-5-(prop-1-yn-1-yl)-[1,1′-biphenyl]-2-yl)sulfonyl)-4-fluoro-N-(4-(methylsulfonyl)but-3-en-2-yl)piperidine-4-carboxamide] |
| 6.21 | C[C@H](/C=C\S(C)(=O)=O)NC(=O)C1(F)CCN(S(=O)(=O)c2ccc(O)cc2-c2ccccc2Cl)CC1 [Compound 104, (R,Z)-1-((2′-chloro-5-hydroxy-[1,1′-biphenyl]-2-yl)sulfonyl)-4-fluoro-N-(4-(methylsulfonyl)but-3-en-2-yl)piperidine-4-carboxamide] |
| 6.72 | COc1cc(-c2ccccc2Cl)c(S(=O)(=O)N2CCC(F)(C(=O)NC/C=C/S(C)(=O)=O)CC2)cn1 [Compound 188, (E)-1-((4-(2-chlorophenyl)-6-methoxypyridin-3-yl)sulfonyl)-4-fluoro-N-(3-(methylsulfonyl)allyl)piperidine-4-carboxamide] |

Further lines, the compound ahead of its results:

| SMILES | pIC50 |
| --- | --- |
| CS(=O)(=O)/C=C/CNC(=O)C1(F)CCN(S(=O)(=O)c2ccc(Cl)cc2-c2ccccc2)CC1 [Compound 37, (E)-1-((5-chloro-[1,1′-biphenyl]-2-yl)sulfonyl)-4-fluoro-N-(3-(methylsulfonyl)allyl)piperidine-4-carboxamide] | 6.53 |
| C[C@@H](/C=C\S(C)(=O)=O)NC(=O)C1(F)CCN(S(=O)(=O)c2ccc(Cl)cc2-c2ccccc2)CC1 [Compound 2, (S,Z)-1-((5-chloro-[1,1′-biphenyl]-2-yl)sulfonyl)-4-fluoro-N-(4-(methylsulfonyl)but-3-en-2-yl)piperidine-4-carboxamide] | 7.05 |
| COc1cccc(-c2cc(OC)ccc2S(=O)(=O)N2CCC(F)(C(=O)NC/C=C/S(C)(=O)=O)CC2)c1 [Compound 39, (E)-1-((3′,5-dimethoxy-[1,1′-biphenyl]-2-yl)sulfonyl)-4-fluoro-N-(3-(methylsulfonyl)allyl)piperidine-4-carboxamide] | 6.15 |
| COc1ccc(S(=O)(=O)N2CCC(F)(C(=O)N[C@@H](C)/C=C\S(C)(=O)=O)CC2)c(-c2ccccc2Cl)c1 [Compound 11, (S,Z)-1-((2′-chloro-5-methoxy-[1,1′-biphenyl]-2-yl)sulfonyl)-4-fluoro-N-(4-(methylsulfonyl)but-3-en-2-yl)piperidine-4-carboxamide] | 7.15 |
| COc1cccc(-c2cc(Cl)ccc2S(=O)(=O)N2CCC(F)(C(=O)N[C@H](C)/C=C/S(C)(=O)=O)CC2)c1 [Compound 80, (R,E)-1-((5-chloro-3′-methoxy-[1,1′-biphenyl]-2-yl)sulfonyl)-4-fluoro-N-(4-(methylsulfonyl)but-3-en-2-yl)piperidine-4-carboxamide] | 6.29 |
| CN(C)c1ccc(S(=O)(=O)N2CCC(F)(C(=O)NC/C=C/S(C)(=O)=O)CC2)c(-c2ccccc2Cl)c1 [Compound 95, (E)-1-((2′-chloro-5-(dimethylamino)-[1,1′-biphenyl]-2-yl)sulfonyl)-4-fluoro-N-(3-(methylsulfonyl)allyl)piperidine-4-carboxamide] | 7.00 |
| COc1cccc(-c2cc(N(C)C)ccc2S(=O)(=O)N2CCC(F)(C(=O)NC/C=C/S(C)(=O)=O)CC2)c1 [Compound 96, (E)-1-((5-(dimethylamino)-3′-methoxy-[1,1′-biphenyl]-2-yl)sulfonyl)-4-fluoro-N-(3-(methylsulfonyl)allyl)piperidine-4-carboxamide] | 6.39 |
| CS(=O)(=O)/C=C/CNC(=O)C1(F)CCN(S(=O)(=O)c2ccc(Cl)cc2-c2cccc(Cl)c2)CC1 [Compound 45, (E)-1-((3′,5-dichloro-[1,1′-biphenyl]-2-yl)sulfonyl)-4-fluoro-N-(3-(methylsulfonyl)allyl)piperidine-4-carboxamide] | 6.38 |
| COc1cccc(-c2cc(C)ccc2S(=O)(=O)N2CCC(F)(C(=O)NC/C=C/S(C)(=O)=O)CC2)c1 [Compound 42, (E)-4-fluoro-1-((3′-methoxy-5-methyl-[1,1′-biphenyl]-2-yl)sulfonyl)-N-(3-(methylsulfonyl)allyl)piperidine-4-carboxamide] | 6.20 |
